Results: patent US11613527B2, “Enzyme inhibitors” (KalVista Pharmaceuticals Limited, priority 2019, dated 2023)

How the values were obtained:
Type in all cases: biochemical
Human plasma kallikrein = Human plasma kallikrein (Homo sapiens (Human), UniProt P03952); assay: Determination of the IC50 for plasma kallikrein (fluorogenic substrate H-DPro-Phe-Arg-AFC); conditions: class symbols A-D, read-out: IC50 (human PKal)
Protocol: The ability of the compounds of formula (I) to inhibit plasma kallikrein may be determined using the following biological assay:
Determination of the IC50 for Plasma Kallikrein
(§1) Plasma kallikrein inhibitory activity in vitro was determined using standard published methods (see e.g. Johansen et al., Int. J. Tiss. Reac. 1986, 8, 185; Shori et al., Biochem. Pharmacol., 1992, 43, 1209; Sturzebecher et al., Biol. Chem. Hoppe-Seyler, 1992, 373, 1025). Human plasma kallikrein (Protogen) was incubated at 25° C. with the fluorogenic substrate H-DPro-Phe-Arg-AFC and various concentrations of the test compound. Residual enzyme activity (initial rate of reaction) was determined by measuring the change in optical absorbance at 410 nm and the IC50 value for the test compound was determined.

Human KLK1 = Human KLK1 (Homo sapiens (Human), UniProt P06870); assay: Determination of the IC50 for KLK1 (fluorogenic substrate H-DVal-Leu-Arg-AFC)
Protocol: Selected compounds were further screened for inhibitory activity against the related enzyme KLK1. The ability of the compounds of formula (I) to inhibit KLK1 may be determined using the following biological assay:
Determination of the IC50 for KLK1
as §1, with “KLK1” for “Plasma kallikrein”, “KLK1 (Callbiochem)” for “plasma kallikrein (Protogen)”, “H-DVal-Leu-Arg-AFC” for “H-DPro-Phe-Arg-AFC”

Human FXIa = Human FXIa (Homo sapiens (Human), UniProt P03951); assay: Determination of the % inhibition for FXIa (fluorogenic substrate Z-Gly-Pro-Arg-AFC; 40 μM or IC50)
Protocol: Selected compounds were further screened for inhibitory activity against the related enzyme FXIa. The ability of the compounds of formula (I) to inhibit FXIa may be determined using the following biological assay:
Determination of the % Inhibition for FXIa
FXIa inhibitory activity in vitro was determined using standard published methods (see e.g. Johansen et al., Int. J. Tiss. Reac. 1986, 8, 185; Shori et al., Biochem. Pharmacol., 1992, 43, 1209; Sturzebecher et al., Biol. Chem. Hoppe-Seyler, 1992, 373, 1025). Human FXIa (Enzyme Research Laboratories) was incubated at 25° C. with the fluorogenic substrate Z-Gly-Pro-Arg-AFC and 40 μM of the test compound (or alternatively at various concentrations of the test compound in order to determine IC50). Residual enzyme activity (initial rate of reaction) was determined by measuring the change in optical absorbance at 410 nm and the IC50 value for the test compound was determined.

Sequence of Human KLK1 (P06870 25-262): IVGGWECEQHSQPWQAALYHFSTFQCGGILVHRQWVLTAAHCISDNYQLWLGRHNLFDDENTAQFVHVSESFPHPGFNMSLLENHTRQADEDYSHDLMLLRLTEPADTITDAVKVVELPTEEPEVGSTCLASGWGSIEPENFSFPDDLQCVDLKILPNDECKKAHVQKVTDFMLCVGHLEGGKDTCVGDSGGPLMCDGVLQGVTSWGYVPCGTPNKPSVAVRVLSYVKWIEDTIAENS
Sequence of Human plasma kallikrein (P03952 391-638): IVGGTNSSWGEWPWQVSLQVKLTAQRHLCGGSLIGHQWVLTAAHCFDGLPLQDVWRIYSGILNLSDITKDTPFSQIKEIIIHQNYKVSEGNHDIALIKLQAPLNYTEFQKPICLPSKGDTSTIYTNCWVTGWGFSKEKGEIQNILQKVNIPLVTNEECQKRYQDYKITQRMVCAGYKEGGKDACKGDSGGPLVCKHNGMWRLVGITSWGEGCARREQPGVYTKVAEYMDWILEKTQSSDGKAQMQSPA
Sequence of Human plasma kallikrein (P03952 20-390 partner): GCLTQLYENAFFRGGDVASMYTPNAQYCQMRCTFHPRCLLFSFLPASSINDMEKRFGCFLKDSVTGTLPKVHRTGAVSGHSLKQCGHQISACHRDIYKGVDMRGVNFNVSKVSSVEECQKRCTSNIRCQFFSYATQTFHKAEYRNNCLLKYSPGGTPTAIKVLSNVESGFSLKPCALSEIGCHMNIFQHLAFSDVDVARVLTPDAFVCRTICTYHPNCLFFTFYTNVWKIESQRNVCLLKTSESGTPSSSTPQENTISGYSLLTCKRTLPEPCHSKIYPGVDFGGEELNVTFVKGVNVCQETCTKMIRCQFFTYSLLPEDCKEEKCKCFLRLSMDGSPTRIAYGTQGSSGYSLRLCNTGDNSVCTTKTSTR
Sequence of Human FXIa (P03951 388-625): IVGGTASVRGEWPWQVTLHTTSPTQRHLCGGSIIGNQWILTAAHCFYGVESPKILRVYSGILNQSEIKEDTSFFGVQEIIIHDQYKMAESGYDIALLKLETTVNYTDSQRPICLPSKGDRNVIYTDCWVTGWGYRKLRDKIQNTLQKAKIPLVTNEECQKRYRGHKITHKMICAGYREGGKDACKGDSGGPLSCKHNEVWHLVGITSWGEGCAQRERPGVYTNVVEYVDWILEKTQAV
Sequence of Human FXIa (P03951 19-387 partner): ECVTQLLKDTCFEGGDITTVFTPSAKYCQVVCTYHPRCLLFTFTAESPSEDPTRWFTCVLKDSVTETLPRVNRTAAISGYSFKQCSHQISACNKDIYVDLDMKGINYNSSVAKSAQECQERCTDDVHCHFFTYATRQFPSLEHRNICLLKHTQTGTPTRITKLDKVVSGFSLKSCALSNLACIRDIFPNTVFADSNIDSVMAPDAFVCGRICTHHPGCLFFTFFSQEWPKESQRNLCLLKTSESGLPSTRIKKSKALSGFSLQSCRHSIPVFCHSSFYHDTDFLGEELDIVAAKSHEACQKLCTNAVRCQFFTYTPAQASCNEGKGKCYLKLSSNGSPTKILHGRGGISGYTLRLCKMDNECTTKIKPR

| SMILES | IC50 (Human plasma kallikrein) [µM] | IC50 (Human KLK1) [µM] | IC50 (Human FXIa) [µM] |
| --- | --- | --- | --- |
| COCc1nn(Cc2ccc3c(c2)CN(C)CC3)cc1C(=O)NCc1c(-n2ncnc2C)ccc(OC)c1F [Example 12, N-{[2-fluoro-3-methoxy-6-(5-methyl-1,2,4-triazol-1-yl)phenyl]methyl}-3-(methoxymethyl)-1-[(2-methyl-3,4-dihydro-1H-isoquinolin-7-yl)methyl]pyrazole-4-carboxamide] | < 0.01 | > 40 | > 40 |
| COCc1nn(Cc2ccc3c(c2)CNCCO3)cc1C(=O)NCc1c(-n2cc(C)nn2)ccc(OC)c1F [Example 110, N-{[2-fluoro-3-methoxy-6-(4-methyl-1,2,3-triazol-1-yl)phenyl]methyl}-3-(methoxymethyl)-1-(2,3,4,5-tetrahydro-1,4-benzoxazepin-7-ylmethyl)pyrazole-4-carboxamide] | 0.1 to 1 | > 40 | > 40 |
| COc1ccc(-n2cc(C)nn2)c(CNC(=O)c2ccn(Cc3ccc4c(c3)CN(C)CC4)c(=O)c2)c1F [Example 159, N-{[2-fluoro-3-methoxy-6-(4-methyl-1,2,3-triazol-1-yl)phenyl]methyl}-1-[(2-methyl-3,4-dihydro-1H-isoquinolin-7-yl)methyl]-2-oxopyridine-4-carboxamide] | 0.1 to 1 | > 40 | > 40 |
| COCc1nn(Cc2ccc3c(c2)CN(C)CC3)cc1C(=O)NCc1c(-n2nc(C)nc2C)ccc(OC)c1F [Example 29, N-{[6-(dimethyl-1,2,4-triazol-1-yl)-2-fluoro-3-methoxyphenyl]methyl}-3-(methoxymethyl)-1-[(2-methyl-3,4-dihydro-1H-isoquinolin-7-yl)methyl]pyrazole-4-carboxamide] | < 0.01 | > 40 | > 40 |
| COCc1nn(Cc2ccc3c(c2F)CCN(C)C3)cc1C(=O)NCc1c(-n2cc(C)nn2)ccc(OC)c1F [Example 114, 1-[(5-fluoro-2-methyl-3,4-dihydro-1H-isoquinolin-6-yl)methyl]-N-{[2-fluoro-3-methoxy-6-(4-methyl-1,2,3-triazol-1-yl)phenyl]methyl}-3-(methoxymethyl)pyrazole-4-carboxamide] | 0.01 to 0.03 | > 40 | > 40 |
| COCc1nn(Cc2ccc3c(c2)CN(C(C)C)CC3)cc1C(=O)NCc1c(-n2cc(C)nn2)ccc(OC)c1F [Example 17, N-{[2-fluoro-3-methoxy-6-(4-methyl-1,2,3-triazol-1-yl)phenyl]methyl}-1-[(2-isopropyl-3,4-dihydro-1H-isoquinolin-7-yl)methyl]-3-(methoxymethyl)pyrazole-4-carboxamide] | < 0.01 | > 40 | > 40 |
| CCN1CCc2cc(Cn3cc(C(=O)NCc4c(-n5ccc(C#N)n5)ccc(OC)c4F)c(COC)n3)ccc2C1 [Example 52, N-{[6-(3-cyanopyrazol-1-yl)-2-fluoro-3-methoxyphenyl]methyl}-1-[(2-ethyl-3,4-dihydro-1H-isoquinolin-6-yl)methyl]-3-(methoxymethyl)pyrazole-4-carboxamide] | < 0.01 | > 40 | > 40 |
| COCc1nn(Cc2ccc3c(c2)CN(C)C3)cc1C(=O)NCc1c(-n2cnc(C(F)(F)F)n2)ccc(OC)c1F [Example 58, N-({2-fluoro-3-methoxy-6-[3-(trifluoromethyl)-1,2,4-triazol-1-yl]phenyl}methyl)-3-(methoxymethyl)-1-[(2-methyl-1,3-dihydroisoindol-5-yl)methyl]pyrazole-4-carboxamide] | < 0.01 | > 40 | 17 |
| COCc1nn(Cc2ccc3c(c2)CN(C)CC3(C)C)cc1C(=O)NCc1c(-n2cc(C)nn2)ccc(OC)c1F [Example 134, N-{[2-fluoro-3-methoxy-6-(4-methyl-1,2,3-triazol-1-yl)phenyl]methyl}-3-(methoxymethyl)-1-[(2,4,4-trimethyl-1,3-dihydroisoquinolin-7-yl)methyl]pyrazole-4-carboxamide] | 0.01 to 0.03 | > 40 | > 40 |
| COCc1nn(Cc2ccc3c(c2)C(F)(F)CN(C)C3)cc1C(=O)NCc1c(-n2cc(C)nn2)ccc(OC)c1F [Example 105, 1-[(4,4-difluoro-2-methyl-1,3-dihydroisoquinolin-6-yl)methyl]-N-{[2-fluoro-3-methoxy-6-(4-methyl-1,2,3-triazol-1-yl)phenyl]methyl}-3-(methoxymethyl)pyrazole-4-carboxamide] | < 0.01 | > 40 | 30 |
| COc1ccc(-n2cc(C)nn2)c(CNC(=O)c2cn(Cc3cc4n(n3)C3(CC3)CN(C)C4)nc2C(F)F)c1F [Example 82] | < 0.01 | > 40 | 18.2 |
| COCc1nn(Cc2ccc3c(c2)CN(C)CC3)cc1C(=O)NCc1c(-n2ccc(C(F)(F)F)n2)ccc(OC)c1F [Example 8, N-({2-fluoro-3-methoxy-6-[3-(trifluoromethyl)pyrazol-1-yl]phenyl}methyl)-3-(methoxymethyl)-1-[(2-methyl-3,4-dihydro-1H-isoquinolin-7-yl)methyl]pyrazole-4-carboxamide] | 0.01 to 0.03 | > 40 | > 40 |
| COCc1nn(Cc2cc(F)cc3c2CCN(C)C3)cc1C(=O)NCc1c(-n2cc(C)nn2)ccc(OC)c1F [Example 103, 1-[(7-fluoro-2-methyl-3,4-dihydro-1H-isoquinolin-5-yl)methyl]-N-{[2-fluoro-3-methoxy-6-(4-methyl-1,2,3-triazol-1-yl)phenyl]methyl}-3-(methoxymethyl)pyrazole-4-carboxamide] | 0.03 to 0.1 | > 40 | > 40 |

Now from value to compound:

| IC50 (Human plasma kallikrein) [µM] | IC50 (Human KLK1) [µM] | IC50 (Human FXIa) [µM] | SMILES |
| --- | --- | --- | --- |
| < 0.01 | > 40 | > 40 | COCc1nn(Cc2ccc3c(c2)CN(C2CC2)CC3)cc1C(=O)NCc1c(-n2cnc(C(F)F)n2)ccc(OC)c1F [Example 19, 1-[(2-cyclopropyl-3,4-dihydro-1H-isoquinolin-7-yl)methyl]-N-({6-[3-(difluoromethyl)-1,2,4-triazol-1-yl]-2-fluoro-3-methoxyphenyl}methyl)-3-(methoxymethyl)pyrazole-4-carboxamide] |
| < 0.01 | > 40 | 28.1 | COCc1nn(Cc2ccc3c(c2)CN(C2CC2)CC3)cc1C(=O)NCc1c(-n2cc(C)nn2)ccc(OC)c1F [Example 14, 1-[(2-cyclopropyl-3,4-dihydro-1H-isoquinolin-7-yl)methyl]-N-{[2-fluoro-3-methoxy-6-(4-methyl-1,2,3-triazol-1-yl)phenyl]methyl}-3-(methoxymethyl)pyrazole-4-carboxamide] |
| < 0.01 | > 40 | > 40 | CCc1ncn(-c2ccc(OC)c(F)c2CNC(=O)c2cn(Cc3ccc4c(c3)CN(C)CC4)nc2COC)n1 [Example 6, N-{[6-(3-ethyl-1,2,4-triazol-1-yl)-2-fluoro-3-methoxyphenyl]methyl}-3-(methoxymethyl)-1-[(2-methyl-3,4-dihydro-1H-isoquinolin-7-yl)methyl]pyrazole-4-carboxamide] |
| 0.03 to 0.1 | > 40 | > 40 | COCc1nn(Cc2ccc3c(c2)CN(C)CC3)cc1C(=O)NCc1c(-n2ccc(C3CC3)n2)ccc(OC)c1F [Example 9, N-{[6-(3-cyclopropylpyrazol-1-yl)-2-fluoro-3-methoxyphenyl]methyl}-3-(methoxymethyl)-1-[(2-methyl-3,4-dihydro-1H-isoquinolin-7-yl)methyl]pyrazole-4-carboxamide] |
| < 0.01 | > 40 | 28.8 | COCc1nn(Cc2ccc3c(c2)CN(C)C3)cc1C(=O)NCc1c(-n2cnc(C(F)F)n2)ccc(OC)c1F [Example 57, N-({6-[3-(difluoromethyl)-1,2,4-triazol-1-yl]-2-fluoro-3-methoxyphenyl}methyl)-3-(methoxymethyl)-1-[(2-methyl-1,3-dihydroisoindol-5-yl)methyl]pyrazole-4-carboxamide] |
| 0.1 to 1 | > 40 | > 40 | COCc1nn(Cc2ccc3c(c2)CN(C)CC3)cc1C(=O)NCc1c(-n2cnc(C(F)F)n2)ccc(Cl)c1F [Example 155, N-({3-chloro-6-[3-(difluoromethyl)-1,2,4-triazol-1-yl]-2-fluorophenyl}methyl)-3-(methoxymethyl)-1-[(2-methyl-3,4-dihydro-1H-isoquinolin-7-yl)methyl]pyrazole-4-carboxamide] |
